According to US6201122A, “Fluoroaliphatic radical-containing anionic sulfonamido compounds” (3M Innovative Properties Company, priority 1992, dated 2001):

Assays:
Type in all cases: physicochemical
[1] = surface tension of aqueous solutions (du Nouy tensiometer); conditions: diluted from 10% solids in water/isopropyl alcohol; for Surface tension (dynes/cm) at 100 ppm: 100 ppm (0.01% solids) in deionized water; for Surface tension (dynes/cm) at 500 ppm: 500 ppm (0.05% solids) in deionized water
Method: (§1) In the following Examples and Comparative Examples, fluoroaliphatic radical-containing compounds were prepared. The surface tension of water and isopropyl alcohol solutions containing these compounds was measured using a du Nouy tensiometer. The foaming properties of these solutions were also evaluated by generating foam and measuring the foam volume and half life.
The fluorochemical solutions obtained in Examples 1 to 6 and Comparative Examples C1 to C12 were diluted to 10% solids by dilution with a solution of 70% by volume water and 30% by volume isopropyl alcohol. Further dilutions to 0.01% solids (100 ppm), and 0.05% solids (500 ppm), were done with deionized water.

[2] = foam volume of surfactant solutions (Hobart mixer, graduated cylinder); conditions: for Foam Volume: 200 mL of 500 ppm solution, Hobart mixer 3 minutes at medium speed; for foam volume relative to anionic Comparative Examples C4 to C7 (in words): 500 ppm, versus anionic Comparative Examples C4 to C7
Method: as §1
(§2) Foam was generated from 200 mL of the 500 ppm solutions used for measuring surface tension. The surfactant solutions were mixed with a Hobart mixer for 3 minutes at medium speed. Foam volume (cubic centimeters of foam) was measured in a graduated cylinder. Foam half-life was measured as the seconds needed to drain 100 mL of solution from the foam.

[3] = foam half-life (seconds needed to drain 100 mL of solution from the foam); conditions: for Foam Half-Life: 200 mL of 500 ppm solution, seconds to drain 100 mL of solution from the foam; for foam half-life relative to anionic Comparative Examples C4 to C7 (in words): 500 ppm, versus anionic Comparative Examples C4 to C7
Method: as §1, §2

| Structure (SMILES) | Surface tension (dynes/cm) at 100 ppm [1] [dynes/cm] | Surface tension (dynes/cm) at 500 ppm [1] [dynes/cm] | Foam Volume [2] [cm^3] | Foam Half-Life [3] | foam volume relative to anionic Comparative Examples C4 to C7 (in words) [2] | foam half-life relative to anionic Comparative Examples C4 to C7 (in words) [3] |
| --- | --- | --- | --- | --- | --- | --- |
| CCN(CC(=O)O)S(=O)(=O)C(F)(F)C(F)(F)C(F)(F)C(F)(F)C(F)(F)C(F)(F)C(F)(F)C(F)(F)F [Comparative Example C4] | 19.7 | 16.4 | 2600 | 6.25 min |  |  |
| CCN(CCC(=O)O)S(=O)(=O)C(F)(F)C(F)(F)C(F)(F)C(F)(F)C(F)(F)C(F)(F)C(F)(F)C(F)(F)F [Comparative Example C5] | 24.3 | 20.7 | 1500 | 1.38 min |  |  |
| CCN(CCC(=O)O)S(=O)(=O)C(F)(F)C(F)(F)C(F)(F)C(F)(F)C(F)(F)C(F)(F)C(F)(F)C(F)(F)F [Comparative Example C6] | 19.9 | 17.5 | 1900 | 4.08 min |  |  |
| CCN(CCC(=O)O)S(=O)(=O)C(F)(F)C(F)(F)C(F)(F)C(F)(F)C(F)(F)C(F)(F)C(F)(F)C(F)(F)F [Comparative Example C7] | 19.1 | 17.2 | 2200 | 5 min |  |  |
| CCN(CCC(=O)NCCC[N+](C)(C)CC)S(=O)(=O)C(F)(F)C(F)(F)C(F)(F)C(F)(F)C(F)(F)C(F)(F)C(F)(F)C(F)(F)F [Comparative Example C8] | 20.5 | 18.5 | 600 | less than 30 sec. |  |  |
| CCN(CCC(=O)NCCC[N+](C)(C)CCCS(=O)(=O)[O-])S(=O)(=O)C(F)(F)C(F)(F)C(F)(F)C(F)(F)C(F)(F)C(F)(F)C(F)(F)C(F)(F)F [Comparative Example C9] | 20.0 | 18.3 | 900 | 0.583 min |  |  |
| CC[N+](C)(CC)CCNS(=O)(=O)C(F)(F)C(F)(F)C(F)(F)C(F)(F)C(F)(F)C(F)(F)C(F)(F)C(F)(F)F [Comparative Example C11] | 18.1 | 17.5 | 2600 | 5.33 min |  |  |
| C[N+](C)(CCCNS(=O)(=O)C(F)(F)C(F)(F)C(F)(F)C(F)(F)C(F)(F)C(F)(F)F)CC(=O)[O-] [Comparative Example C12] | 21.0 | 19.4 | 2400 | 5.33 min |  |  |
| CC(C)(CS(=O)(=O)O)NC(=O)CCNCCNS(=O)(=O)C(F)(F)C(F)(F)C(F)(F)C(F)(F)C(F)(F)C(F)(F)C(F)(F)C(F)(F)F [Example 1] | 18.3 | 17.1 | 300 | less than 30 sec. | much lower foam volume | significantly shorter foam half-life |
| O=C(O)CCNCCNS(=O)(=O)C(F)(F)C(F)(F)C(F)(F)C(F)(F)C(F)(F)C(F)(F)C(F)(F)C(F)(F)F [Example 2] | 16.8 | 16.5 | 300 | less than 30 sec. | much lower foam volume | significantly shorter foam half-life |
| CC(C)(CS(=O)(=O)O)NC(=O)CCN1CCN(S(=O)(=O)C(F)(F)C(F)(F)C(F)(F)C(F)(F)C(F)(F)C(F)(F)C(F)(F)C(F)(F)F)CC1 [Example 3] | 20.3 | 18.5 |  |  |  |  |
| CC(C)(CS(=O)(=O)O)NC(=O)CCNCCC[Si](C)(C)O[Si](C)(C)CCCNS(=O)(=O)C(F)(F)C(F)(F)C(F)(F)C(F)(F)F [Example 4] |  | 20.1 |  |  |  |  |
| CCN(CCSC(CC(=O)O)C(=O)O)S(=O)(=O)C(F)(F)C(F)(F)C(F)(F)C(F)(F)C(F)(F)C(F)(F)C(F)(F)C(F)(F)F (stereo not drawn) [Example 6] |  | 19.3 |  |  |  |  |
